This note sets out measurements from US11007184B2, “Cancer treatments using combinations of type 2 MEK and ERK inhibitors” (BIOMED VALLEY DISCOVERIES, INC., priority 2013, dated 2021).

One assay has as its system HCT116 Parental. In words: Single agent proliferation assay (CellTiter-Glo, 72 h). Conditions: Homo sapiens, HCT-116. It is filed as cell-based. For orientation: In ATP-based viability assays light output follows the ATP content of the culture.
In assay [1] the test system is A375 cells. In words: Dose escalation study. Type of assay: cell-based, human. To be noted: Month 2; for Concentration in which escalated cells were growing: single agent escalation; for Dose escalation progress: A375 cells. The source says: Medium was refreshed every 3-4 days. […] Again, medium was refreshed every 3-4 days. The process was repeated as required (FIG. 19).

The next assay concerns RKO BRAF KO (+/−/−). In words: Single agent proliferation assay (CellTiter-Glo, 72 h). Type of assay: cell-based.
Assay [2] has as its system A375 cells escalated with BVD-523 (BVD-523 line). The experiment in a line: Proliferation assay (Alamar Blue, 96 hours), dose escalation study. It is filed as cell-based. To be noted: Homo sapiens, A-375, Month 3, growing in 1.2 μM BVD-523, read-out: Relative IC50. On the technique in general: Resazurin is reduced to fluorescent resorufin, in cell work by metabolically active cells.
Excerpt: (§2) Cancer cell lines were maintained in cell culture under standard media and serum conditions. For dose escalation studies, A375 cells were split, grown to about 40-60% confluence, and then treated with the initial dose of the specified drug.
(§3) Cells were then allowed to grow until 70-90% confluence and split. Split ratios were kept as “normal” as possible and reasonably consistent between treatments (e.g. a minimum of 50% of the normal split ratio of the parentals). Medium was refreshed every 3-4 days. When cells again reached about 40-60% confluence, the dose was escalated. In the event that the 40-60% window was missed, the cells were split again and dosed once they reached 40-60% confluence. Again, medium was refreshed every 3-4 days.
(§4) Proliferation assays were used to track changes in sensitivity to the escalated agent(s) at appropriate time intervals (e.g. each month, although the timing is dependent on adequate cell numbers being available). […] Alamar Blue 10% (v/v) was then added and incubated for 4 hours and fluorescent product was detected using a BMG FLUOstar plate reader. The average media only background value was deducted and the data analyzed using a 4-parameter logistic equation in GraphPad Prism.

For the next assay, the system named is RKO Parental. The experiment in a line: Single agent proliferation assay (CellTiter-Glo, 72 h). Type of assay: cell-based.
The test system of the next assay is A375 Parental. The description is as above. Type of assay: cell-based. To be noted: Homo sapiens, A-375.
A further assay has as its system HCT116 KRAS KO (+/−). The description is as above. Type of assay: cell-based. Conditions: Homo sapiens, HCT-116.
The test system of another assay is A375 NRAS (Q61K/+). The assay is described as above. Type of assay: cell-based. Conditions: Homo sapiens, A-375.
The test system of assay [3] is MAPK signaling in A375 and HCT116 cells. In words: Western blot analysis of MAPK signaling. Type of assay: cell-based, human. The procedure:
For Western blot studies, HCT116 cells (5×10^6) were seeded into 10 cm dishes in McCoy's 5A plus 10% FBS. […] Cells were allowed to adhere overnight prior to addition of the indicated amount of test compound (BVD-523) or vehicle control. Cells were treated for either 4 or 24 hours before isolation of whole-cell protein lysates, as specified below. Cells were harvested by trypsinisation, pelleted and snap frozen. Lysates were prepared with RIPA (Radio-Immunoprecipitation Assay) buffer, clarified by centrifugation and quantitated by bicinchoninic acid assay (BCA) assay. 20-50 μg of protein was resolved by SDS-PAGE electrophoresis, blotted onto PVDF membrane and probed using the antibodies detailed in Table 14 (for the 4-hour treatment) and Table 15 (for the 24-hour treatment) below.
A general note: Immunoblotting shows a protein as a band on a membrane.

In assay [4] the test system is A375 cells. The experiment in a line: Focused combination study, Alamar Blue viability assay. It is filed as cell-based, human. Conditions: with the lower concentrations of Sorafenib. As to the method:
(§1) Combinations were tested using a 10×8 dose matrix with a final DMSO concentration of 0.2%. A 96 hour assay incubation period followed, with subsequent addition of Alamar Blue 10% (v/v) and 4 hours incubation prior to reading on a fluorescent plate reader. After reading Alamar Blue, the medium/Alamar Blue mix was flicked off and 100 μl of CellTiter-Glo/PBS (1:1) added and the plates processed as per the manufacturer's instructions (Promega). Media only background values were subtracted before the data was analysed. The Bliss additivity model was then applied. In brief, predicted fractional inhibition values for combined inhibition were calculated using the equation […]) where A and B are the fractional inhibitions obtained by drug A alone or drug B alone at specific concentrations. Cbliss is the fractional inhibition that would be expected if the combination of the two drugs were exactly additive. Cbliss values are subtracted from the experimentally observed fractional inhibition values to give an 'excess over Bliss' value. […] Excess over Bliss values are plotted as heat maps±SD. For focused combination studies, the Alamar Blue viability assays were performed as described above for combination studies. Additionally, Caspase-Glo 3/7 assays were performed. In brief, HCT116 cells were seeded in triplicate in white 96-well plates at a cell density of 5000 cells/well in McCoy's 5A plus 10% FBS. A375 cells were seeded at a density of 5000 cells/well in DMEM plus 10% FBS. […] The final concentration of DMSO was 0.2%, and 800 nM staurosporine was included as a positive control. 24 and 48 hour assay incubation periods were used. Then, Caspase-Glo® 3/7 50% (v/v) was added, plates were mixed for 5 minutes on an orbital shaker and incubated for 1 hour at room temperature prior to reading on a luminescent plate reader. Media only background values were subtracted before the data was analysed.

For a further assay, the system named is HCT116 cells. Described as above. Type of assay: cell-based, human. As to the method:
as §1

The test system of assay [5] is A375 cells. In words: Combination study, 10×8 dose matrix, Alamar Blue and CellTiter-Glo, Bliss additivity model. Conditions: single agent. Type of assay: cell-based, human. The procedure:
Combinations were tested using a 10×8 dose matrix with a final DMSO concentration of 0.2%. A 96 hour assay incubation period followed, with subsequent addition of Alamar Blue 10% (v/v) and 4 hours incubation prior to reading on a fluorescent plate reader. After reading Alamar Blue, the medium/Alamar Blue mix was flicked off and 100 μl of CellTiter-Glo/PBS (1:1) added and the plates processed as per the manufacturer's instructions (Promega). Media only background values were subtracted before the data was analysed. The Bliss additivity model was then applied.
In brief, predicted fractional inhibition values for combined inhibition were calculated using the equation Cbliss=A+B−(A×B) where A and B are the fractional inhibitions obtained by drug A alone or drug B alone at specific concentrations. Cbliss is the fractional inhibition that would be expected if the combination of the two drugs were exactly additive. Cbliss values are subtracted from the experimentally observed fractional inhibition values to give an ‘excess over Bliss’ value. Excess over Bliss values greater than 0 indicate synergy, whereas values less than 0 indicate antagonism. Excess over Bliss values are plotted as heat maps±SD.
The single and combination data are also presented as dose-response curves generated in GraphPad Prism (plotted using % viability relative to DMSO only treated controls).

The subject of assay [6] is A375 cells escalated with dabrafenib + trametinib (Dab/Tram line).
Excerpt: as §2, §3, §4

Description for A375 NRAS (Q61K/+): Cells were seeded in 96-well plates at the densities and media conditions indicated in Table 16 and allowed to adhere overnight prior to addition of compound or vehicle control. […] Test compounds were incubated with the cells for 72 h at 37° C., 5% CO2 in a humidified atmosphere. CellTiter-Glo® reagent (Promega, Madison, Wis.) was added according to manufacturer's instructions and luminescence detected using the BMG FLUOstar plate reader (BMG Labtech, Ortenberg, Germany). The average media only background value was deducted and the data analysed using a 4-parameter logistic equation in GraphPad Prism (GraphPad Software, La Jolla, Calif.).
Description for A375 Parental: (§5) Test compounds were incubated with the cells for 72 h at 37° C., 5% CO2 in a humidified atmosphere. CellTiter-Glo® reagent (Promega, Madison, Wis.) was added according to manufacturer's instructions and luminescence detected using the BMG FLUOstar plate reader (BMG Labtech, Ortenberg, Germany). The average media only background value was deducted and the data analysed using a 4-parameter logistic equation in GraphPad Prism (GraphPad Software, La Jolla, Calif.).
Description for HCT116 KRAS KO (+/−): as §5
Description for HCT116 Parental: as §5
Description for RKO BRAF KO (+/−/−): as §5
Description for RKO Parental: as §5

For the molecule `CC(=O)Nc1cccc(-n2c(=O)n(C3CC3)c(=O)c3c(Nc4ccc(I)cc4F)n(C)c(=O)c(C)c32)c1` [Trametinib, trametinib], the IC50 (usually the concentration that inhibits the measured activity by half) with HCT116 Parental was 7 nM; in the assay on RKO BRAF KO (+/−/−), 3 nM; in assay [2], 1.7 nM; in the assay on RKO Parental, 8 nM; with A375 Parental, 0.3 nM; with HCT116 KRAS KO (+/−), 6 nM. Besides, the “Concentration in which escalated cells were growing” value in the assay on A375 cells [1] stood at 100 × parental cell IC50.
For `O=C(c1ccc(F)c(F)c1Nc1ccc(I)cc1F)N1CC(O)([C@@H]2CCCCN2)C1` [GDC-0973], the IC50 with HCT116 Parental came to 90 nM; with RKO BRAF KO (+/−/−) it was 31 nM; in the assay with A375 NRAS (Q61K/+) it was 3 nM; with RKO Parental it was 40 nM; with A375 Parental, 2 nM; with HCT116 KRAS KO (+/−), 61 nM.
For `Cn1cnc2c(F)c(Nc3ccc(Br)cc3F)c(C(=O)NOCCO)cc21` [MEK-162], the IC50 came to 114 nM in the assay with HCT116 Parental; 23 nM in the assay on RKO BRAF KO (+/−/−); 33 nM in the assay on A375 NRAS (Q61K/+); 210 nM in the assay on RKO Parental; 23 nM with A375 Parental; 113 nM in the assay with HCT116 KRAS KO (+/−).
For the molecule `CC(=O)O[C@H]1C(=O)[C@@]2(C)[C@H]([C@H](OC(=O)c3ccccc3)[C@]3(O)C[C@H](OC(=O)[C@H](O)[C@@H](NC(=O)c4ccccc4)c4ccccc4)C(C)=C1C3(C)C)[C@]1(OC(C)=O)CO[C@@H]1C[C@@H]2O` [Paclitaxel], the midpoint of inhibition in the assay on A375 NRAS (Q61K/+), the IC50, lay at 6 nM.
In the case of `O=C(Nc1ccc2[nH]nc(-c3ccncc3)c2c1)[C@@H]1CCN(CC(=O)N2CCN(c3ccc(-c4ncccn4)cc3)CC2)C1` [SCH772984], the IC50 in the assay with HCT116 Parental was determined as 116 nM; in the assay with RKO BRAF KO (+/−/−), 125 nM; in the assay on A375 NRAS (Q61K/+) it was 79 nM; in the assay with RKO Parental it was 126 nM; in the assay on A375 Parental, 43 nM; with HCT116 KRAS KO (+/−), 141 nM.
Turning to `O=C(NOCCO)c1ccc2cncn2c1Nc1ccc(I)cc1F` [GDC-0623], the IC50 with HCT116 Parental stood at 31 nM; with RKO BRAF KO (+/−/−), 5 nM; in the assay with A375 NRAS (Q61K/+) it was 10 nM; with RKO Parental, 32 nM; in the assay with A375 Parental it was 8 nM; in the assay with HCT116 KRAS KO (+/−), 29 nM.
`CC(C)Nc1cc(-c2c[nH]c(C(=O)N[C@H](CO)c3cccc(Cl)c3)c2)c(Cl)cn1` [BVD-523]: the “Concentrations required to induce changes in substrate phosphorylation and effector targets of ERK kinases” value in assay [3] (RAF and RAS mutant cancer cells in-vitro, acute and prolonged treatment) is given as “low micromolar range”. Also, the “RSK1/2 phosphorylation at residues strictly dependent on ERK (T359/5363)” value in assay [3] (following BVD-523 treatment) is given as “reduced phosphorylation”. Also, in [3] (following either acute or prolonged treatment), the “Cellular ERK enzyme activity” value is recorded as “fully inhibited”. Moreover, the IC50 in the assay with HCT116 Parental came to 256 nM; with RKO BRAF KO (+/−/−), 762 nM; with RKO Parental, 621 nM; in the assay on HCT116 KRAS KO (+/−) it was 316 nM. Besides, the Dose escalation progress entry in the assay with A375 cells [1] is listed as “progressed more slowly”. Also, the “Combination interaction with Sorafenib” value in the assay on A375 cells [4] was “window of synergy”; with HCT116 cells (Trametinib: with higher concentrations of Sorafenib), “windows of synergy”. In addition, the “Combination interaction with AZ628” value in the assay on HCT116 cells was “windows of synergy”.
On to `CC(C)(C)c1nc(-c2cccc(NS(=O)(=O)c3c(F)cccc3F)c2F)c(-c2ccnc(N)n2)s1` [Dabrafenib, dabrafenib], for which the “Sensitivity of A375 cells, which carry a BRAF (V600E) mutation” value with A375 cells [5] was “sensitive”. Moreover, in the assay with A375 cells [1], the Dose escalation progress entry was “quickest” and the “Concentration in which escalated cells were growing” value was found to be 100 × parental cell IC50. Moreover, the IC50 in [2] stood at 18.4 nM. In addition, the IC50 in assay [6] stood at 58 nM.
